Results: ChEMBL document CHEMBL5465560, “Selectivity Literature for EUbOPEN Chemogenomic Library” (2024)

Columns and labels:
[1] = target: Tyrosine-protein kinase SYK (Homo sapiens, UniProt P43405); experiment: Selectivity interaction (KinomeScan (DiscoverX)) EUB0000045b SYK
[2] = target: T1, Ephrin type-B receptor 1 (Homo sapiens) (UniProt P54762); experiment: Selectivity interaction (KinomeScan (DiscoverX)) EUB0001079a EPHB1; conditions: at 1 µM
T1 sequence (whole entry): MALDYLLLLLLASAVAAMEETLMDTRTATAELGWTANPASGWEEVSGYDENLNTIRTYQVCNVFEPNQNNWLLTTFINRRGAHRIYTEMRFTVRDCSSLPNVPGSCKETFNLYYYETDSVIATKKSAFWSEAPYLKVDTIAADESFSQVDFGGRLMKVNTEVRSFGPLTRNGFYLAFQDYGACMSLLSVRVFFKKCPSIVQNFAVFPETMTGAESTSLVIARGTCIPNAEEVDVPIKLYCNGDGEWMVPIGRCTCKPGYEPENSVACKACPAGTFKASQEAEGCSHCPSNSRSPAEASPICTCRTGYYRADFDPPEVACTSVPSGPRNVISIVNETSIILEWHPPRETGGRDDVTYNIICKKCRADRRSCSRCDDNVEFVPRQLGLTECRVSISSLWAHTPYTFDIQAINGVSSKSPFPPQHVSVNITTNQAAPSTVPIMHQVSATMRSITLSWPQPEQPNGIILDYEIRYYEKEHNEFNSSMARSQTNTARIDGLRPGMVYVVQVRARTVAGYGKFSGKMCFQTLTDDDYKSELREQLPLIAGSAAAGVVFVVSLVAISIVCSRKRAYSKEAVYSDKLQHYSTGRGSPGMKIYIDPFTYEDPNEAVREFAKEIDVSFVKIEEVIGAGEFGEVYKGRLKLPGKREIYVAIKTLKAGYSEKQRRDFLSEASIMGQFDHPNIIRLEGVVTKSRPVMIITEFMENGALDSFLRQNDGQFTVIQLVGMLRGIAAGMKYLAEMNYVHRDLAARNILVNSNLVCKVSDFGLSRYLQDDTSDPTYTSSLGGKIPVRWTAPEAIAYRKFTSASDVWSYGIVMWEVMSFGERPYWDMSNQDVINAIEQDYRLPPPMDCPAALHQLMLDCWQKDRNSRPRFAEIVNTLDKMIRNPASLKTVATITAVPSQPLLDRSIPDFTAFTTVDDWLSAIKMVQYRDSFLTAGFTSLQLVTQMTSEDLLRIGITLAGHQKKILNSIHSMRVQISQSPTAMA

[3] = target: Calcium/calmodulin-dependent protein kinase type 1B (Homo sapiens) (UniProt Q6P2M8); experiment: Selectivity interaction (KinomeScan (DiscoverX)) EUB0001079a PNCK; conditions: at 1 µM
[4] = target: T2, Serine/threonine-protein kinase tousled-like 1 (Homo sapiens) (UniProt Q9UKI8); conditions: at 10 µM
T2 sequence (whole entry): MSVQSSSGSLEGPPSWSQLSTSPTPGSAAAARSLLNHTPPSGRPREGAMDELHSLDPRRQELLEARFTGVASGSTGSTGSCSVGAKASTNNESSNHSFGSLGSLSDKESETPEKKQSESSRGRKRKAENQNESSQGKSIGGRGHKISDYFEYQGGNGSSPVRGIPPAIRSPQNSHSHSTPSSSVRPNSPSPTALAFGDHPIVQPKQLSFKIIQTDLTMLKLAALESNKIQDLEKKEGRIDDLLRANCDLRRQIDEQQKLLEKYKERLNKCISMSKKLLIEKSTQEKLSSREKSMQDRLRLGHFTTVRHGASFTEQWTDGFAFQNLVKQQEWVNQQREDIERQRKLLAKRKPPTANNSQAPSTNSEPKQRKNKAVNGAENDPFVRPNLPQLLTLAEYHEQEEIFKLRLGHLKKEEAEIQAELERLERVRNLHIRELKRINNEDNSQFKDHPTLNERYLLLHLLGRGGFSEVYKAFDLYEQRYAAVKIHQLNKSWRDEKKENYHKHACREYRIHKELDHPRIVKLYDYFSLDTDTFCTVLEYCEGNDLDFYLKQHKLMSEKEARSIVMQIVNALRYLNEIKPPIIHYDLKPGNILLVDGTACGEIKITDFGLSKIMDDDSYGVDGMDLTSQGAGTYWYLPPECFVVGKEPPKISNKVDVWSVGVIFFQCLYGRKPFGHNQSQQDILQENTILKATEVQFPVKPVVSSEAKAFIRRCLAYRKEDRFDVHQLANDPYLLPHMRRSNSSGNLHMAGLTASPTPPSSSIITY

[5] = target: Mitogen-activated protein kinase kinase kinase 1 (Homo sapiens, UniProt Q13233); experiment: Selectivity interaction (KinomeScan (DiscoverX)) EUB0001619a MAP3K1; conditions: at 1 µM
[6] = target: Ribosomal protein S6 kinase alpha-4 (Homo sapiens) (UniProt O75676); experiment: Selectivity interaction (KinomeScan (DiscoverX)) EUB0000618a RPS6KA4; conditions: at 10 µM
[7] = target: T3, MAP/microtubule affinity-regulating kinase 4 (Homo sapiens) (UniProt Q96L34); experiment: Selectivity interaction (Kinase panel (Invitrogen)) EUB0000639a MARK4; conditions: at 200 nM
T3 sequence (whole entry): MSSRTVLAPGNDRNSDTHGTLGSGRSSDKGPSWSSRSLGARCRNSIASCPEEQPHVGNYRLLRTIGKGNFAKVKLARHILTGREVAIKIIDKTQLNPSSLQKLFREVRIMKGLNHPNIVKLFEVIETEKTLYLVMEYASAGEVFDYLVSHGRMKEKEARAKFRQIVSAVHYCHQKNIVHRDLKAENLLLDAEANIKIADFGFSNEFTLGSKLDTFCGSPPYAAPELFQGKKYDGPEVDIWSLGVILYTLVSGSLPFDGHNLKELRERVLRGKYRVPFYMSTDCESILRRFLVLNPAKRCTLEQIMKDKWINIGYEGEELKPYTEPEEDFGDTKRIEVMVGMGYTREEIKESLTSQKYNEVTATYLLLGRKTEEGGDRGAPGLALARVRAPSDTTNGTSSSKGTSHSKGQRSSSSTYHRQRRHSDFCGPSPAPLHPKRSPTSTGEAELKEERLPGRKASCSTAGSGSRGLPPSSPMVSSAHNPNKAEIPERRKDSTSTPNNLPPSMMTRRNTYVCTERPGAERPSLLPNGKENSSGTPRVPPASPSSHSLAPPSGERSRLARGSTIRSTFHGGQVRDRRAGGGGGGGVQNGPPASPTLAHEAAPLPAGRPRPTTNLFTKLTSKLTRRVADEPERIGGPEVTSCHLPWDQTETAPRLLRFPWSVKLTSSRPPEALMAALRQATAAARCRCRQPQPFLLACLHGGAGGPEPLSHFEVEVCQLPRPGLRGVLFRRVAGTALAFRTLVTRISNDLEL

Chain of Ribosomal protein S6 kinase alpha-4 (Homo sapiens) (O75676 whole entry, looked up): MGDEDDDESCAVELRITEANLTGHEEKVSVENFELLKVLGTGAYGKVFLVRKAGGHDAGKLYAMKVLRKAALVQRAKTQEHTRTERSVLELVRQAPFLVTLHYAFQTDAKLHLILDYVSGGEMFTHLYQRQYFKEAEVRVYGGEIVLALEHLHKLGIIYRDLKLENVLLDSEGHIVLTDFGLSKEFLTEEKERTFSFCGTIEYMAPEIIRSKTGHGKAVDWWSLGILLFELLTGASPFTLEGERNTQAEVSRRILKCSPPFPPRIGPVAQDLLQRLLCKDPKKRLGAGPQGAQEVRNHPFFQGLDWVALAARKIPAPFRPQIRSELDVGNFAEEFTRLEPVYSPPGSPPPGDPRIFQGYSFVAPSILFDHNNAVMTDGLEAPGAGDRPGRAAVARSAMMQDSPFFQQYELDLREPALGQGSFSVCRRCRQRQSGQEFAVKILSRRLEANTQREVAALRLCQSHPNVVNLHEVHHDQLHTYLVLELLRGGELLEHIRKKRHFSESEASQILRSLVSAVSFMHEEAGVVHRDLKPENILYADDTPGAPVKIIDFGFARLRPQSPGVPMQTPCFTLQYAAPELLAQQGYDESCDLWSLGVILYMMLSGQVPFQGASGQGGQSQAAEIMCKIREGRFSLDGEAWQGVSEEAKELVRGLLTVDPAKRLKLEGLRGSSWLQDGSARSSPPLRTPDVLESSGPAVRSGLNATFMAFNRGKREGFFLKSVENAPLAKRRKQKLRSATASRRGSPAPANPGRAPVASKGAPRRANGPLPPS
Chain of Calcium/calmodulin-dependent protein kinase type 1B (Homo sapiens) (Q6P2M8 whole entry): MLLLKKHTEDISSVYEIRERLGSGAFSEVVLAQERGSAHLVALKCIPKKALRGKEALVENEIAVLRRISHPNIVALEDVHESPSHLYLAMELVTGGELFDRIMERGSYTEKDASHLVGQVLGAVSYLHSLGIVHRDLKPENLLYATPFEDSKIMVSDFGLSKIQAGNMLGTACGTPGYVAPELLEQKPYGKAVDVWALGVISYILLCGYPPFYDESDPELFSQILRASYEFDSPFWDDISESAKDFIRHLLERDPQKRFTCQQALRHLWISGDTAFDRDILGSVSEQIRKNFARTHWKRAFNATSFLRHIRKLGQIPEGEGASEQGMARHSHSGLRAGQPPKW
Chain of Mitogen-activated protein kinase kinase kinase 1 (Q13233 whole entry): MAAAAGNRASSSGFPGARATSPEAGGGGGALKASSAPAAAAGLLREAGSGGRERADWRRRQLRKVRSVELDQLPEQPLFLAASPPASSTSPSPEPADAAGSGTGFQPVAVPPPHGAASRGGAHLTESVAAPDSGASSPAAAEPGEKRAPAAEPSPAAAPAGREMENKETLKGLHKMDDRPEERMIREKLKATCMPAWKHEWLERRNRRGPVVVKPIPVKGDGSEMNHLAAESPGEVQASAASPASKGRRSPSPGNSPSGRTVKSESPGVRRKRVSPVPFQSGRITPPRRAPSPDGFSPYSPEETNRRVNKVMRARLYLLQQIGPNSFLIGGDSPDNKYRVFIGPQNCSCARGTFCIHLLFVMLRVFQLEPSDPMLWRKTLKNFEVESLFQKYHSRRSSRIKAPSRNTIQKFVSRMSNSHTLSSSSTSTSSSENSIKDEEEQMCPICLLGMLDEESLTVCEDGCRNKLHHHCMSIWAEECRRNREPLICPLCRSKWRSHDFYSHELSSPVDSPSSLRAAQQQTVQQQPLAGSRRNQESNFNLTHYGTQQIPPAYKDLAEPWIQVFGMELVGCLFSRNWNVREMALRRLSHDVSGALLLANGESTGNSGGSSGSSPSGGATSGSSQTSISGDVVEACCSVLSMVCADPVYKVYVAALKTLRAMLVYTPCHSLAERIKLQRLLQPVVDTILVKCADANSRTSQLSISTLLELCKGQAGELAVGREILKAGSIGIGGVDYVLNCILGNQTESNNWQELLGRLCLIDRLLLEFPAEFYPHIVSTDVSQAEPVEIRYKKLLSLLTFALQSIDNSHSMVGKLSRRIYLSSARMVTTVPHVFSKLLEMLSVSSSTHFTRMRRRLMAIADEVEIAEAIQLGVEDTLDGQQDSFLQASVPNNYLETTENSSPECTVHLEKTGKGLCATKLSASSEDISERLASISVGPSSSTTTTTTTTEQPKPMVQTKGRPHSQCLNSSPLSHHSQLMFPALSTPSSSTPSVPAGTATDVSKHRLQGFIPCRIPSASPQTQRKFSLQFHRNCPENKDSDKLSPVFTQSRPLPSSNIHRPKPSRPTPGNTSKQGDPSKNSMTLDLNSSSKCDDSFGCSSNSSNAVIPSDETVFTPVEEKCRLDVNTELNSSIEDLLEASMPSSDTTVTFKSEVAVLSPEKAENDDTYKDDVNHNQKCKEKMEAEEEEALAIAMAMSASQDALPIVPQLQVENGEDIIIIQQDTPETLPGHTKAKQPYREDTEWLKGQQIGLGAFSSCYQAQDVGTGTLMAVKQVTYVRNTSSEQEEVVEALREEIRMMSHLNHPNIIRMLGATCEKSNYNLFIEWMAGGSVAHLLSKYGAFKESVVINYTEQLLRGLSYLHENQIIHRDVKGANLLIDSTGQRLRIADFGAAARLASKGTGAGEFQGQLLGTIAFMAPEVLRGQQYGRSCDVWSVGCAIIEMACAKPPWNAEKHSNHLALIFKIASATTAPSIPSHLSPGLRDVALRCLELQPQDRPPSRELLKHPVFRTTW

Question: For `C=CC(=O)Nc1cc(-n2c(=O)ccc3cnc4ccc(-c5ccc(NS(C)(=O)=O)cc5)cc4c32)ccc1C`, which % of control ([1]; at 1 µM) is on record?
Answer: 100%

Question: What about the % of control ([1]; at 10 µM) of the same molecule?
Answer: 96%

Question: With `Nc1cnc(N2CCc3cc(S(=O)(=O)Nc4c(F)cc(Cl)cc4F)cc(N4CCCC4=O)c32)nc1` [TP-020n] as the molecule, how does the % of control [2] read?
Answer: 92%

Question: What about the % of control [3] of the same molecule?
Answer: 67%

Question: How did the % of control [4] turn out when `Cc1cc([C@@H](C)Nc2ccccc2C(=O)O)c2nc(N3CCOCC3)cc(=O)n2c1` [AZD-6482] was run?
Answer: 96%

Question: `N#Cc1cccc(-c2c[nH]c3ncnc(N4CCOCC4)c23)c1` was tested. Which % of control [5] did it give?
Answer: 82%

Question: How did the % of control [6] turn out when `O[C@H]1CC[C@H](Nc2ncc3nc(Nc4c(F)cc(F)cc4F)n([C@H]4CCOC4)c3n2)CC1` was run?
Answer: 100%

Question: Which % of inhibition [7] does the source give for `CC[C@@H]1[C@H](F)C(=O)N[C@@H]1COc1nccc2cc(C(N)=O)c(OC)cc12` [ZIMLOVISERTIB] here?
Answer: 14%
